Experiments:
[1] = Inhibition of Protein kinase A
[2] = molecular target: Cyclin-dependent kinase 4/cyclin D1 (Homo sapiens, UniProt P11802); assay: Inhibition of Cyclin D1-cyclin-dependent kinase 4; type: protein-complex assay
HCT-116 = assay: Antiproliferative activity was tested in human HCT116 (colon) cell line; type: functional, cell-based
[3] = molecular target: Cyclin-dependent kinase 2/cyclin E (Homo sapiens, UniProt P24941); assay: Inhibition of Cyclin E-cyclin-dependent kinase 2; type: protein-complex assay

Chain of Cyclin-dependent kinase 4/cyclin D1 (P11802 whole entry): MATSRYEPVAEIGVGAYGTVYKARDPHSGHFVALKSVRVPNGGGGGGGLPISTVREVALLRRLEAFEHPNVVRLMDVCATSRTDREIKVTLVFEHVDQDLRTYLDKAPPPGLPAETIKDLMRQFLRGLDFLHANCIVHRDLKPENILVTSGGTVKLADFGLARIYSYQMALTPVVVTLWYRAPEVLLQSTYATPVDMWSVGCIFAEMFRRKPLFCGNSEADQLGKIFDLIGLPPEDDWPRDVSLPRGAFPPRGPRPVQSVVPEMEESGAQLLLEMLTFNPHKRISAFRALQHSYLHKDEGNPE
Chain of Cyclin-dependent kinase 4/cyclin D1 (P24385 whole entry, further chain): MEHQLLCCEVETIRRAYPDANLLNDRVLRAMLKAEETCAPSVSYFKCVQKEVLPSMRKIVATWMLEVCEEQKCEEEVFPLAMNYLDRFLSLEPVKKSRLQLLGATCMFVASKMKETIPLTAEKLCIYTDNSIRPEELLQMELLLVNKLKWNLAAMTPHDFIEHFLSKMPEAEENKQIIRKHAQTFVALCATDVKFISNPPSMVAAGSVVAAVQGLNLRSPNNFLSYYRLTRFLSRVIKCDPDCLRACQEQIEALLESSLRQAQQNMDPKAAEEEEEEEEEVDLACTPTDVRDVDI

| Compound | IC50 [1] [nM] | IC50 [2] [nM] | IC50 (HCT-116) [nM] | IC50 [3] [nM] |
| --- | --- | --- | --- | --- |
| Cc1cn(S(=O)(=O)N2CCn3c4c(cccc4c4c5c(c6c7ccccc7[nH]c6c43)C(=O)NC5=O)C2)cn1 | > 2000 | 120 | > 10000 | – |
| CS(=O)(=O)N1CCn2c3c(cccc3c3c4c(c5c6ccccc6[nH]c5c32)C(=O)NC4=O)C1 | > 2000 | 50 | 1600 | > 200 |
| CC(C)N1CCn2c3c(cccc3c3c4c(c5c6ccccc6[nH]c5c32)C(=O)NC4=O)C1 | > 2000 | 70 | 640 | 780 |
| NCC(=O)N1CCn2c3c(cccc3c3c4c(c5c6ccccc6[nH]c5c32)C(=O)NC4=O)C1 | > 20000 | – | > 10000 | – |
| O=C1NC(=O)c2c1c1c3ccc(C(F)(F)F)c(CO)c3[nH]c1c1c2c2cccc3c2n1CCNC3 | – | 40 | 3500 | – |
| O=C1NC(=O)c2c1c1c3cc(F)ccc3[nH]c1c1c2c2cccc3c2n1CCNC3 | 200 | 30 | 260 | > 200 |
| O=C1NC(=O)c2c1c1c3ccc(C(F)(F)F)cc3[nH]c1c1c2c2cccc3c2n1CCNC3 | > 2000 | 60 | 170 | 210 |
| O=C1NC(=O)c2c1c1c3ccccc3[nH]c1c1c2c2cccc3c2n1CCCCNC3 | 40 | 80 | 90 | 200 |
| O=C1NC(=O)c2c1c1c3cc(F)c(F)cc3[nH]c1c1c2c2cccc3c2n1CCNC3 | > 2000 | – | 400 | > 200 |
| O=C1NC(=O)c2c1c1c3ccccc3[nH]c1c1c2c2cccc3c2n1CCNC3 | 160 | 27 | 310 | 30 |
| O=C1NC(=O)c2c1c1c3ccc(F)cc3[nH]c1c1c2c2cccc3c2n1CCNC3 | 430 | 30 | 200 | 10 |
